Reference: PubChem BioAssay AID248 (DTP/NCI, 2004)
“And” between values parts separate entries of the source, which are not always exact repeats. Equal entries are not always repeated. Toxic doses and inconclusive results are not listed.

Tested on: L1210 leukemia ip in BDF1 mice, survival T/C
Assay: NCI In Vivo Anticancer Drug Screen. Data for tumor model L1210 Leukemia (intraperitoneal) in B6D2F1 (BDF1) mice
Settings: endpoint: mean survival time, higher = longer survival
How it was run: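 Tumor was transplanted into mice, which were then dosed with test compound or vehicle alone. Survival was recorded for each group, and the treated figure was expressed relative to the control figure.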

[1] = dose: 100.0 mg/kg/injection, schedule: Q04DX003 (ip), vehicle: saline
[2] = dose: 200.0 mg/kg/injection, schedule: Q04DX003 (ip), vehicle: saline
[3] = dose: 400.0 mg/kg/injection, schedule: Q04DX003 (ip), vehicle: saline
[4] = dose: 50.0 mg/kg/injection, schedule: Q04DX002 (ip), vehicle: Klucel (hydroxypropylcellulose) (HPC)
[5] = dose: 100.0 mg/kg/injection, schedule: Q04DX002 (ip), vehicle: Klucel (hydroxypropylcellulose) (HPC)
[6] = dose: 200.0 mg/kg/injection, schedule: Q04DX002 (ip), vehicle: Klucel (hydroxypropylcellulose) (HPC)
[7] = dose: 100.0 mg/kg/injection, schedule: Q01DX001 (ip), vehicle: saline
[8] = dose: 200.0 mg/kg/injection, schedule: Q01DX001 (ip), vehicle: saline
[9] = dose: 400.0 mg/kg/injection, schedule: Q04DX002 (ip), vehicle: Klucel (hydroxypropylcellulose) (HPC)
[10] = dose: 100.0 mg/kg/injection, schedule: Q01DX001 (ip), vehicle: carboxymethylcellulose (CMC)
[11] = dose: 400.0 mg/kg/injection, schedule: Q01DX001 (ip), vehicle: carboxymethylcellulose (CMC)
[12] = dose: 100.0 mg/kg/injection, schedule: Q01DX009 (ip), vehicle: Klucel (hydroxypropylcellulose) (HPC)
[13] = dose: 100.0 mg/kg/injection, schedule: Q04DX003 (ip), vehicle: Klucel (hydroxypropylcellulose) (HPC)
[14] = dose: 200.0 mg/kg/injection, schedule: Q01DX009 (ip), vehicle: Klucel (hydroxypropylcellulose) (HPC)
[15] = dose: 200.0 mg/kg/injection, schedule: Q04DX003 (ip), vehicle: Klucel (hydroxypropylcellulose) (HPC)
[16] = dose: 400.0 mg/kg/injection, schedule: Q01DX009 (ip), vehicle: Klucel (hydroxypropylcellulose) (HPC)
[17] = dose: 400.0 mg/kg/injection, schedule: Q04DX003 (ip), vehicle: Klucel (hydroxypropylcellulose) (HPC)

For `CCOC(CS(=O)(=O)CC(N)=O)OCC`, the T/C (dose: 100.0 mg/kg/injection, schedule: Q01DX009 (ip), vehicle: saline with Tween-80) was 97 % of control, the T/C (dose: 200.0 mg/kg/injection, schedule: Q01DX009 (ip), vehicle: saline with Tween-80) was 95 % of control and the T/C (dose: 400.0 mg/kg/injection, schedule: Q01DX009 (ip), vehicle: saline with Tween-80) was 92 % of control.

`COc1cccc(CO)c1-c1c(CO)cccc1OC` was tested, and the T/C [1] was 95 % of control, the T/C [2] was 97 % of control and the T/C [3] was 97 % of control.

In the case of `O=C1Cc2ccccc2N1C(=O)c1ccccc1`, the T/C [4] is reported as 97 % of control, the T/C [5] is reported as 101 % of control and the T/C [6] is reported as 90 % of control.

With `Cc1ccc(C(O)CCN2CCOCC2)c(C)c1` (stereo not drawn) the T/C [7] was 102 % of control and the T/C [8] was 104 % of control.

For `CNc1ncnc2nc(Cl)[nH]c12`, the T/C [7] was 108 % of control.

For `Nc1nc(N)c2[nH]c(CCCc3ccccc3)nc2n1`, the T/C [4] was 98 % of control, the T/C [5] was 98 % of control and the T/C [6] was 98 % of control.

In the case of `Cc1cccc(C2=N/C(=C\c3ccc4c(c3)OC(O)O4)C(=O)O2)c1` (stereo not drawn), the T/C [5] is reported as 97 % of control, the T/C [6] is reported as 104 % of control and the T/C [9] is reported as 104 % of control.

In the case of `CN(N=O)C(=O)NCCCCCNC(=O)N(C)N=O`, the T/C (dose: 6.25 mg/kg/injection, schedule: Q01DX Z (ip), vehicle: carboxymethylcellulose (CMC)) is reported as 102 % of control, the T/C (dose: 12.5 mg/kg/injection, schedule: Q01DX Z (ip), vehicle: carboxymethylcellulose (CMC)) is reported as 100 % of control and the T/C (dose: 25.0 mg/kg/injection, schedule: Q01DX Z (ip), vehicle: carboxymethylcellulose (CMC)) is reported as 106 % of control. The T/C (dose: 50.0 mg/kg/injection, schedule: Q01DX Z (ip), vehicle: carboxymethylcellulose (CMC)) was 108 % of control, the T/C (dose: 150.0 mg/kg/injection, schedule: Q01DX Z (ip), vehicle: carboxymethylcellulose (CMC)) was 191 % of control and the T/C (dose: 175.0 mg/kg/injection, schedule: Q01DX Z (ip), vehicle: carboxymethylcellulose (CMC)) was 166 % of control. The T/C (dose: 200.0 mg/kg/injection, schedule: Q01DX Z (ip), vehicle: carboxymethylcellulose (CMC)) was 158 % of control and the T/C (dose: 210.0 mg/kg/injection, schedule: Q01DX001 (ip), vehicle: carboxymethylcellulose (CMC)) was 117 % of control.

With `O=[N+]([O-])c1cccc(-c2cc(-c3cccs3)cc(-c3ccccc3)n2)c1` the T/C (dose: 100.0 mg/kg/injection, schedule: Q04DX002 (ip), vehicle: gum acacia) was 93 % of control, the T/C (dose: 200.0 mg/kg/injection, schedule: Q04DX002 (ip), vehicle: gum acacia) was 93 % of control and the T/C (dose: 400.0 mg/kg/injection, schedule: Q04DX002 (ip), vehicle: gum acacia) was 93 % of control.

For `C/C=C/C[P+](c1ccccc1)(c1ccccc1)c1cccc2ccccc12`, the T/C (dose: 25.0 mg/kg/injection, schedule: Q04DX002 (ip), vehicle: saline with Tween-80) was 94 % of control.

In the case of `Nc1cc2c(cc1Br)[nH]c(=O)c1ccccc12`, the T/C [10] is reported as 98 % of control, the T/C (dose: 200.0 mg/kg/injection, schedule: Q01DX001 (ip), vehicle: carboxymethylcellulose (CMC)) is reported as 96 % of control and the T/C [11] is reported as 93 % of control.

In the case of `O=C(CBr)NC(Cc1ccccc1)C(=O)O` (stereo not drawn), the T/C (dose: 75.0 mg/kg/injection, schedule: Q01DX001 (ip), vehicle: saline) is reported as 94 % of control and 90 % of control, the T/C (dose: 150.0 mg/kg/injection, schedule: Q01DX001 (ip), vehicle: saline) is reported as 103 % of control and the T/C (dose: 300.0 mg/kg/injection, schedule: Q01DX001 (ip), vehicle: saline) is reported as 90 % of control.

In the case of `O=C(Nc1ccccc1Cl)N(C1CCCCC1)C1CCCCC1`, the T/C [5] is reported as 103 % of control, the T/C [6] is reported as 100 % of control and the T/C [9] is reported as 106 % of control.

For `COc1ccc(/C=C2\N=C(c3ccccc3)OC2=O)cc1`, the T/C [7] was 94 % of control, the T/C [1] was 98 % of control and the T/C [8] was 95 % of control. For the same molecule, the T/C [2] was 93 % of control, the T/C (dose: 400.0 mg/kg/injection, schedule: Q01DX001 (ip), vehicle: saline) was 94 % of control and the T/C [3] was 93 % of control.

For `O=C(NC1c2cc(Cl)ccc2-c2c(Cl)cc(Cl)cc21)C12CC3CC(CC(C3)C1)C2` (stereo not drawn), the T/C [12] was 96 % of control, the T/C [13] was 100 % of control and the T/C [14] was 97 % of control. The T/C [15] was 93 % of control, the T/C [16] was 104 % of control and the T/C [17] was 96 % of control.

For `CC(C)(C)OC1C2C=CC1C1C2C2(Cl)C(Cl)=C(Cl)C1(Cl)C21OCCO1` (stereo not drawn), the T/C [5] was 97 % of control and the T/C [9] was 110 % of control.

With `O=C(Nc1ccc(Cl)c(Cl)c1)OCC1CC2C=CC1C2` (stereo not drawn) the T/C [12] was 100 % of control, the T/C [14] was 97 % of control and the T/C [16] was 106 % of control.

With `CC1=NC(C(=O)O)C(=O)O1` (stereo not drawn) the T/C (dose: 100.0 mg/kg/injection, schedule: Q01DX009 (ip), vehicle: saline) was 98 % of control, the T/C [1] was 105 % of control and the T/C (dose: 200.0 mg/kg/injection, schedule: Q01DX009 (ip), vehicle: saline) was 93 % of control. For the same molecule, the T/C [2] was 97 % of control and the T/C [3] was 103 % of control.

In the case of `COC(=O)c1ccccc1N=NNc1ccc(-c2nc(N)nc(N)n2)cc1`, the T/C [13] is reported as 100 % of control, the T/C [14] is reported as 100 % of control and the T/C [15] is reported as 94 % of control. For the same molecule, the T/C [16] was 100 % of control and the T/C [17] was 95 % of control.

With `O=C1c2cccc3cccc(c23)C(=O)N1CCCCCCCCN1C(=O)c2cccc3cccc(c23)C1=O` the T/C [5] was 88 % of control and the T/C [6] was 101 % of control.

`c1ccc(COCC[P+](c2ccccc2)(c2ccccc2)c2ccccc2)cc1` was tested, and the T/C (dose: 5.0 mg/kg/injection, schedule: Q01DX001 (ip), vehicle: saline) was 94 % of control and the T/C (dose: 20.0 mg/kg/injection, schedule: Q01DX001 (ip), vehicle: saline) was 87 % of control.

In the case of `CCCCCCCCCN(CCCC)CCCC`, the T/C (dose: 25.0 mg/kg/injection, schedule: Q01DX001 (ip), vehicle: saline with Tween-80) is reported as 95 % of control, the T/C (dose: 50.0 mg/kg/injection, schedule: Q01DX001 (ip), vehicle: saline with Tween-80) is reported as 88 % of control and the T/C (dose: 100.0 mg/kg/injection, schedule: Q01DX001 (ip), vehicle: saline with Tween-80) is reported as 102 % of control.

In the case of `CC(C)CCSc1ccccc1`, the T/C (dose: 18.75 mg/kg/injection, schedule: Q01DX009 (ip), vehicle: acetone) is reported as 91 % of control, the T/C (dose: 37.5 mg/kg/injection, schedule: Q01DX009 (ip), vehicle: acetone) is reported as 92 % of control and the T/C (dose: 37.5 mg/kg/injection, schedule: Q04DX003 (ip), vehicle: acetone) is reported as 100 % of control. The T/C (dose: 75.0 mg/kg/injection, schedule: Q01DX001 (ip), vehicle: acetone) was 100 % of control, the T/C (dose: 75.0 mg/kg/injection, schedule: Q01DX009 (ip), vehicle: acetone) was 91 % of control and the T/C (dose: 75.0 mg/kg/injection, schedule: Q04DX003 (ip), vehicle: acetone) was 90 % of control. The T/C (dose: 150.0 mg/kg/injection, schedule: Q01DX001 (ip), vehicle: acetone) was 94 % of control and the T/C (dose: 150.0 mg/kg/injection, schedule: Q04DX003 (ip), vehicle: acetone) was 95 % of control.

With `COc1cc2c(C)cc(=O)oc2cc1O` the T/C [10] was 98 % of control and the T/C [11] was 93 % of control.

For `CCCCCCCCC1=C(CCCCCCC(=O)OC)[14CH2]1`, the T/C (dose: 75.0 mg/kg/injection, schedule: Q04DX003 (ip), vehicle: saline) was 100 % of control, the T/C (dose: 150.0 mg/kg/injection, schedule: Q04DX003 (ip), vehicle: saline) was 93 % of control and the T/C (dose: 300.0 mg/kg/injection, schedule: Q04DX003 (ip), vehicle: saline) was 90 % of control.

For `Cc1cc2c([N+](=O)[O-])c3ccc(N4CCCCC4)nn3c2n[n+]1[O-]`, the T/C (dose: 31.3 mg/kg/injection, schedule: Q04DX002 (ip), vehicle: Klucel (hydroxypropylcellulose) (HPC)) was 95 % of control, the T/C (dose: 62.5 mg/kg/injection, schedule: Q04DX002 (ip), vehicle: Klucel (hydroxypropylcellulose) (HPC)) was 111 % of control and the T/C (dose: 125.0 mg/kg/injection, schedule: Q04DX002 (ip), vehicle: Klucel (hydroxypropylcellulose) (HPC)) was 122 % of control.

`O=C(CSCC(=O)c1ccc(Br)cc1)c1ccc(Br)cc1` was tested, and the T/C (dose: 100.0 mg/kg/injection, schedule: Q04DX003 (ip), vehicle: other) was 101 % of control, the T/C (dose: 200.0 mg/kg/injection, schedule: Q04DX003 (ip), vehicle: other) was 93 % of control and the T/C (dose: 400.0 mg/kg/injection, schedule: Q04DX003 (ip), vehicle: other) was 86 % of control.

For `COc1ccc(C(=O)CBr)cc1OC`, the T/C [10] was 96 % of control.
